Patent publication US20260263543A1, “COMPOSITIONS AND METHODS TO INCREASE PRODUCTION OF GAMMA-AMINOBUTYRIC ACID” (Verb Biotics, priority 2023, published 2026)

Key:
[1] = system: GABA production; assay: Synthesis of GABA in vitro (conversion of glutamate to GABA in culture); format: cell-based, Lactiplantibacillus plantarum; conditions: cultures grown under anaerobic conditions at ~37° C. for 48 hours; data not shown
Experimental: The Lactiplantibacillus plantarum Lp815 strain was assessed for its ability to convert glutamate to GABA in vitro. Overnight, stationary phase cultures (16-18 h) of L. plantarum Lp815 were used to inoculate 3 mL of fresh media at an optical density of ~0.05 as measured at 600 nm by a spectrophotometer (OD600). Multiple media types can be used, including rich media (e.g., MRS broth) or minimal media supplemented with the necessary components to support growth. The media can further be supplemented with L (+)-glutamic acid or a salt thereof and/or piperazine-N,N′-bis(2-ethanesulfonic acid) (PIPES). Cultures were grown under anerobic conditions at ~37° C. for 48 hours.

[2] = system: healthy adults; assay: Urine GABA and 5-HIAA levels in human participants after Lp815 supplementation; format: in vivo; conditions: week 4, 1×10^9 cfu/day for 4 weeks
Experimental: The Lactiplantibacillus plantarum Lp815 strain was assessed for its ability to increase GABA levels in human participants. Eight healthy adults (5 female, 3 male) provided a urine sample at baseline (T=0). Urine was analyzed for GABA and 5-HIAA levels using the Neurotransmitter Basic Panel (available from Life Extension/National Diagnostics, Inc.). 5-HIAA is a metabolite of serotonin and indicative of serotonin levels in a subject. Participants with GABA levels in the high range at baseline ([…] GABA) were excluded from the study. Participants proceeded to take the Lp815 probiotic at 1×10^9 cfu/day for 4 weeks. Participants refrained from beginning any new treatments, using antibiotics, or taking any additional probiotic products.
After 4 weeks of supplementation, a second urine sample was collected and GABA levels measured. […] Additionally, levels of 5-HIAA were increased by approximately 10% at week 4 relative to baseline (FIG. 1B).

[3] = system: Participants with self-reported mild to moderate anxiety; assay: Double blind, randomized, placebo-controlled study of GAD-7 generalized anxiety scores; format: in vivo, human; conditions: 1×10^9 CFU or 5×10^9 CFU daily; weeks 2, 4, and 6; FIG. 2
Experimental: A double blind, randomized, placebo-controlled study was conducted to assess the impact of Lactiplantibacillus plantarum Lp815 on generalized anxiety scores. Participants with self-reported mild to moderate anxiety as measured by the GAD-7 questionnaire were enrolled in a six week trial. Participants with severe anxiety were excluded.
The GAD-7 questionnaire is a self-reported questionnaire that assesses anxiety levels based on 7 questions as measured over the last two weeks: 1) feeling nervous, anxious, or on edge, 2) not being able to stop or control worrying, 3) worrying too much about different things, 4) trouble relaxing, 5) being so restless that it is hard to sit still, 6) becoming easily annoyed or irritable, and 7) feeling afraid as if something awful might happen. For each question, a score of 0 (not at all), 1 (several days), 2 (more than half the days), or 3 (nearly every day) is assigned. The total score is a sum across the seven questions. A total score of 0-4 indicates minimal anxiety, 5-9 indicates mild anxiety, 10-14 indicates moderate anxiety, and 15-21 indicates severe anxiety.
Participants were divided into either placebo, 1×10^9 CFU daily of Lp815 or 5×10^9 CFU daily of Lp815. The GAD-7 questionnaire was administered at baseline, 2 weeks, 4 weeks and 6 weeks following supplementation.

Lactiplantibacillus plantarum Lp815
GABA production [1]: increase in GABA production
GABA levels increase relative to baseline ([2]; FIG. 1A): approximately 20%
levels of 5-HIAA increase relative to baseline ([2]; FIG. 1B): approximately 10%
decrease in GAD-7 scores relative to baseline [3]: 10-15 points
